Measured values taken from patent publication US20110065760A1, “COMPOUNDS FOR THE INHIBITION OF ROTAMASES AND USE THEREOF” (Jerini AG, priority 2002, published 2011).
Read-outs that look alike come from different tables or passages of the source.

How the values were obtained:
EcParvulin = EcParvulin (Escherichia coli, UniProt P0A9L5); test: protease-coupled PPIase assay, EcParvulin; assay type: biochemical
hPin1 = hPin1 (Homo sapiens, UniProt Q13526); test: protease-coupled PPIase assay, hPin1; assay type: biochemical; settings: 6 nM hPin1, substrate Ac-Ala-Ala-Ser(PO3H2)-Pro-Arg-pNA, trypsin, pH 7.8, 6° C.; read-out: IC50 class, Target T-1 (hPin1)
LpCyp18 = LpCyp18 (Legionella pneumophila, UniProt Q5ZRZ4); test: biochemical; settings: IC50 class, Target T-4 (LpCyp18)
hCyp18 = hCyp18 (Homo sapiens, UniProt P62937); test: protease-coupled PPIase assay, hCyp18; assay type: biochemical; settings: 10 nM hCyp18, substrate Suc-Ala-Phe-Pro-Phe-pNA, chymotrypsin, pH 7.8, 6° C.; read-out: IC50 class, Target T-3 (hCyp18)
[1] = WST-1 cytotoxicity assay, HL-60; assay type: cell-based; settings: human, HL-60 cells (acute myeloid leukemia); WST-1, 48 h incubation; read-out: EC50 class, cytotoxic effect, CL-1 (HL-60)
Description: (§1) For this cytotoxic evaluation of the compounds the commercial available WST-1 assay (Roche) was used according to the manufacturer's instructions. The assay is based on the cleavage of the tetrazolium salt WST-1 by mitochondrial dehydrogenases found in viable cells. In general compounds were added to cells cultured in 96-well plates at 37° C. After 48 h of incubation 10 μl of WST-1 solution was added. The formazan dye was analyzed with an ELISA plate reader at (450 vs. 620) nm. CL-1: human acute myeloid leukemia, HL-60 CL-2: human cervix carcinoma, HeLa CL-3: human prostate carcinoma, PC-3 CL-4: human colon adenocarcinoma, Caco-2 CL-5: human breast adenocarcinoma, MCF-7

hFKBP12 = hFKBP12 (Homo sapiens, UniProt P62942); test: protease-coupled PPIase assay, hFKBP12; assay type: biochemical; settings: 20 nM hFKBP12, substrate Suc-Ala-Phe-Pro-Phe-pNA, chymotrypsin, pH 7.8, 6° C.; read-out: IC50 class, Target T-2 (hFKBP12)
Hela cells = test: DAPI staining; assay type: cell-based, human; settings: FIG. 3
Description: Hela cells grown on poly-L-Lys-coated coverslips were fixed with 2% paraformaldehyde/MeOH.
Cellular DNA was stained with DAPI staining buffer (100 mM Tris (pH 7.4), 150 mM NaCl, 1 mM CaCl2, 0.5 mM MgCl2, 0.1% nonidet P-40, 1 μg/ml DAPI (Molecular Probes)). All the steps were performed at room temperature, and cells were washed two times with PBS after each step. Finally, cells were mounted in 80% glycerol/PBS.

[2] = tested on: cyclin D1 in MCF-7 and HeLa cells; test: Cyclin D1 down regulation (western blot marker analysis); assay type: cell-based, human
Description: MCF-7 (5×10^5 cells/well) and HeLa cells (1.5×10^5 cells/well) were seeded in 6-well plates and incubated at 37° C. over night. Compounds or DMSO (final solvent concentration 0.1%) were added to the cells and incubated for different times as indicated. Subsequently, cells were lysed in RIPA buffer for 30 min on ice and centrifuged for 20 min at 4° C. After addition of electrophoresis sample buffer (4×) and 50 mM DTT to the supernatant, samples were boiled for 4 min at 95° C. Samples (equivalent to 2×10^5 cells/well) were run on a 15% SDS gel followed by blotting onto PVDF membrane.
The membrane was blocked for 1 h in 10 mM Tris (pH 7.5), 100 mM NaCl, 0.1% Tween-20 and 5% non-fat dry milk (blocking buffer) and incubated for 1 h with mouse anti-hCyclin D1 monoclonal antibody (clone DCS-6, BD Biosciences) diluted to 1 μg/ml in blocking buffer. Blots were washed 3×10 min with 10 mM Tris (pH 7.5), 100 mM NaCl, 0.1% Tween-20 (washing buffer) and incubated with 0.7 μg/ml peroxidase-conjugated sheep anti-mouse IgG (Sigma) in blocking buffer for 1 h. After washing 3×10 min with washing buffer, the plot was developed with the ECL+ detection kit (Amersham Biosciences).

[3] = WST-1 cytotoxicity assay, Caco-2; assay type: cell-based; settings: human, Caco-2 cells (colon adenocarcinoma); WST-1, 48 h incubation; read-out: EC50 class, cytotoxic effect, CL-4 (Caco-2)
Description: as §1

[4] = WST-1 cytotoxicity assay, MCF-7; assay type: cell-based; settings: human, MCF-7 cells (breast adenocarcinoma); WST-1, 48 h incubation; read-out: EC50 class, cytotoxic effect, CL-5 (MCF-7)
Description: as §1

[5] = WST-1 cytotoxicity assay, HeLa; assay type: cell-based; settings: human, HeLa cells (cervix carcinoma); WST-1, 48 h incubation; read-out: EC50 class, cytotoxic effect, CL-2 (HeLa)
Description: as §1

[6] = WST-1 cytotoxicity assay, PC-3; assay type: cell-based; settings: human, PC-3 cells (prostate carcinoma); WST-1, 48 h incubation; read-out: EC50 class, cytotoxic effect, CL-3 (PC-3)
Description: as §1

Trypsin = target: T1, Trypsin (UniProt P00760); test: trypsin assay; assay type: biochemical; settings: 0.1 μg/ml trypsin, 120 μM Ac-Ala-Ala-Ser(PO3H2)-Pro-Arg-pNA, pH 7.8, 30° C., 30 min incubation; read-out: IC50 class, Target T-7 (Trypsin)
T1 sequence (P00760 1-246): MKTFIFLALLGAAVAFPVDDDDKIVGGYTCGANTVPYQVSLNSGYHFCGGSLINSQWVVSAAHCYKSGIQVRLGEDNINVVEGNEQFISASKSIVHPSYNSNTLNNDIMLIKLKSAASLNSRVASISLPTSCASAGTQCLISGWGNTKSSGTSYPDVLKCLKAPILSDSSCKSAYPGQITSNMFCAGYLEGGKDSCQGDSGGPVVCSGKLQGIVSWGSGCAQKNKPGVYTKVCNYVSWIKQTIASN
Description: (§2) In order to investigate the impact of some of the inventive compounds on the activity of key proteases the following assay was performed: Protease activities were measured spectrophotometrically at 30° C. according to Schomburg and Salzmann (Schomburg, B.; Salzmann M. GBF: Enzyme Handbook. Springer Verlag, Berlin Heidelberg, 1991) and Bergmeyer et al. (Bergmeyer, H. U.; Bergmeyer, J.; Graβl, M. Methods of Enzymatic Analysis, Vol. V Enzymes 3: Peptides, Proteinases and Their Inhibitors. pp 55-371, VCH, Weinheim, 1988). The release of 4-nitroaniline was determined at 390 nm with a Spectramax Plus UV/Vis spectrophotometer (Molecular Devices). The cathepsin B assay was performed in a reaction mixture containing 0.2 μg/ml cathepsin B, 2 mM Z-Arg-Arg-pNA in 88 mM KH2PO4, 12 mM Na2HPO4, 1.33 mM EDTA, 0.03% Brij 35 (pH 5.8). The trypsin assay was carried out in a reaction mixture containing 0.1 μg/ml trypsin and 120 μM Ac-Ala-Ala-Ser(PO3H2)-Pro-Arg-pNA in 35 mM HEPES (pH 7.8) and the papain assay in a mixture consisting of 16 μg/ml papain and 2 mM Bz-DL-Arg-pNA in 10 mM Na2HPO4, 2 mM L-Cys, 5 mM EDTA (pH 6.5). In general, reactions were started by addition of peptide substrate after a 30 min incubation of 1-100 μM effector with given concentrations of enzyme.

Papain = target: T2, Papain (Carica papaya, UniProt P00784); test: papain assay; assay type: biochemical; settings: 16 μg/ml papain, 2 mM Bz-DL-Arg-pNA, pH 6.5, 30° C., 30 min incubation; read-out: IC50 class, Target T-6 (Papain)
T2 sequence (P00784 134-345): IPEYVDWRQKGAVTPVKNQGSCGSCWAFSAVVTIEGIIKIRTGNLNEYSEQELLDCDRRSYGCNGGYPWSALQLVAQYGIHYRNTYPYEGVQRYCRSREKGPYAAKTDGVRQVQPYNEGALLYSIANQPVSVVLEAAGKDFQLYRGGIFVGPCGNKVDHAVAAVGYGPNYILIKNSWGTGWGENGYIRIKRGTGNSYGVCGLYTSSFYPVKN
Description: as §2

cathepsin B = cathepsin B (Homo sapiens, UniProt P07858); test: cathepsin B assay; assay type: biochemical; settings: 0.2 μg/ml cathepsin B, 2 mM Z-Arg-Arg-pNA, pH 5.8, 30° C., 30 min incubation; read-out: IC50 class, Target T-8 (Cathepsin)
Description: as §2

HL-60 cells = test: FACS measurements and TUNEL assay (Apo-Direct kit); assay type: cell-based, human; settings: FIG. 2
Source text: Enari M. Sakahira H. Yokoyama H. Okawa K. Iwamatsu A. Nagata S. A caspase-activated DNase that degrades DNA during apoptosis, and its inhibitor ICAD [erratum appears in Nature 1998 May 28; 393(6683):396.]. Nature. 391:43-50, 1998 • Darzynkiewicz Z. Juan G. Li X. Gorczyca W. Murakami T. Traganos F. Cytometry in cell necrobiology: analysis of apoptosis and accidental cell death (necrosis). Cytometry. 27:1-20, 1997
Apoptotic HL-60 cells were detected by FACS analysis of FITC-dUTP-labelled DNA breaks using the Apo-Direct kit (BD-Pharmingen) according to the manufacturer's protocol.

[7] = tested on: tumor cell lines (HL-60, HeLa, PC-3, Caco-2, MCF-7); test: WST-1 cytotoxicity assay, tumor cell lines (panel statement); assay type: cell-based, human; settings: WST-1, 48 h; table 4
Description: as §1

Sequence of LpCyp18 (Q5ZRZ4 1-164): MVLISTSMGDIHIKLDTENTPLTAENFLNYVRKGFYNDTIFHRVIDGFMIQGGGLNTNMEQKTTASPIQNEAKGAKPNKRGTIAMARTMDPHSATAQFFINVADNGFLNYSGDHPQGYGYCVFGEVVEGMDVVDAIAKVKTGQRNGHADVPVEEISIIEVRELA
Sequence of EcParvulin (P0A9L5 whole entry): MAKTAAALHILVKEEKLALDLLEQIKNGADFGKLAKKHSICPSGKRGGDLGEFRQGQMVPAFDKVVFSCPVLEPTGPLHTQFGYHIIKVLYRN
Sequence of hCyp18 (P62937 whole entry): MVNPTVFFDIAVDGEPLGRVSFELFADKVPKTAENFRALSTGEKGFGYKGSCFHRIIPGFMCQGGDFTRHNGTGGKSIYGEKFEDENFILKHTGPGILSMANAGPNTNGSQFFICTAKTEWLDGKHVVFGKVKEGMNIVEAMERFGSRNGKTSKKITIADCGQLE
Sequence of hFKBP12 (P62942 whole entry): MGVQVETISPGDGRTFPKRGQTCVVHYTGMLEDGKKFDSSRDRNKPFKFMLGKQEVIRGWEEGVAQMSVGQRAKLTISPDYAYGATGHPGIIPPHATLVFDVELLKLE
Sequence of hPin1 (Q13526 whole entry): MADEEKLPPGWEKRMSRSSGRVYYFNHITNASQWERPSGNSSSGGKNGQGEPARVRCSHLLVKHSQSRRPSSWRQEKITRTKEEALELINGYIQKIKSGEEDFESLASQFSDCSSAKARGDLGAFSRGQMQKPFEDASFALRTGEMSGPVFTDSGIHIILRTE

Structure (SMILES) | IC50 (EcParvulin; 20 nM EcParvulin, substrate Suc-Ala-Phe-Pro-Phe-pNA, chymotrypsin, pH 7.8, 6° C., read-out: IC50 class, Target T-5 (EcParv)) [µM] | IC50 (hPin1) [µM] | IC50 (LpCyp18) [µM] | IC50 (hCyp18) [µM] | EC50 at 48 h [1] [µM] | IC50 (hFKBP12) [µM] | induction of apoptosis (DAPI staining, fluorescence microscopy) (Hela cells) | cyclin D1 down regulation [2] | EC50 at 48 h [3] [µM] | EC50 at 48 h [4] [µM] | EC50 at 48 h [5] [µM] | EC50 at 48 h [6] [µM] | IC50 (Trypsin) [µM] | IC50 (Papain) [µM] | IC50 (cathepsin B) [µM] | induction of apoptosis (FACS analysis of FITC-dUTP-labelled DNA breaks) (HL-60 cells) | cytotoxic effect on the tumor cell lines tested [7] | IC50 (EcParvulin) [µM]
CC(C)(C)CC(C)(C)NC(=O)Nc1cc(Cl)cc(Cl)c1O [Compound 30] | > 100 | 1 to 10 | > 100 | > 100 | < 10 | > 100 | induce apoptosis | particular relevance | < 10 |  |  |  |  |  |  |  |  | 
Cc1c(Cl)cc(NC(=S)Nc2ccccc2C(F)(F)F)c(O)c1Cl [Compound 261] |  |  |  |  | < 10 |  |  |  | 10 to 50 | 10 to 50 | 10 to 50 | 10 to 50 |  |  |  |  |  | 
Cc1c(Cl)cc(NC(=S)Nc2ccc(C(F)(F)F)cc2)c(O)c1Cl [Compound 264] |  | < 1 |  |  | < 10 |  | induce apoptosis | particular relevance | < 10 | < 10 | < 10 | < 10 | > 100 | > 100 | > 100 | induce apoptosis | particular relevance | 
Oc1c(NCc2ccccc2Sc2ccc(Cl)cc2)ccc(F)c1F [Compound 399] |  | < 1 | 50 to 100 | 50 to 100 | < 10 | > 100 | induce apoptosis | particular relevance |  | < 10 | < 10 | < 10 |  | > 100 | 10 to 50 |  | particular relevance | 10 to 50
Cc1c(Cl)cc(NC(=O)NCCCCCCNC(=O)Nc2cc(Cl)c(C)c(Cl)c2O)c(O)c1Cl [Compound 673] |  | < 1 |  |  |  |  |  | particular relevance |  | < 10 |  |  |  |  |  |  | particular relevance | 
CC(C)(C)CC(C)(C)NC(=O)Nc1cc(Cl)c(O)c(Cl)c1 [Compound 703] |  | < 1 | > 100 | > 100 | 10 to 50 | > 100 |  |  | 10 to 50 |  | 10 to 50 | 10 to 50 | 50 to 100 | > 100 | > 100 |  | particular relevance | 1 to 10
CC(CC(=O)Nc1cc(Cl)c(O)c(Cl)c1)CC(C)(C)C (centres unmarked) [Compound 1273] |  | < 1 | > 100 | > 100 | 10 to 50 | > 100 |  |  | 10 to 50 |  | 50 to 100 | 10 to 50 | > 100 | > 100 | > 100 |  | particular relevance | 1 to 10
CC(C)=CC(=O)Nc1cc(Cl)c(O)c(Cl)c1 [Compound 1296] |  | 1 to 10 | > 100 | 10 to 50 | 50 to 100 | > 100 |  |  |  |  |  |  | > 100 | > 100 | > 100 |  |  | 10 to 50
